Measured values taken from patent US12371454B2, “Cyclic peptide compound having Kras inhibitory action” (priority 2019, dated 2025).
Starred links: 1 amine or outer side, 2 acyl side, 3 side chain; linkers in the order of their positions; H or OH if unused. Positions of bridges follow the written chain, without caps; N, C: chain ends. Non-standard residues stand in square brackets, D forms with d. Residues, ends and D or L forms follow the SMILES beside them. *: point of attachment. hPhe(3-Cl-4-CF3) = N[C@@H](CCc1ccc(C(F)(F)F)c(Cl)c1)C(=O)O; hPhe(3-F,4-CF3) = N[C@@H](CCc1ccc(C(F)(F)F)c(F)c1)C(=O)O; NMePhe(4-CF3) = CN[C@@H](Cc1ccc(C(F)(F)F)cc1)C(=O)O; Pro(cis-4-Ph) = O=C(O)[C@@H]1C[C@H](c2ccccc2)CN1; 3Oxa8azabicyclo(3.2.1)octane = C1CC2COCC1N2*; NMeAla(cPent) = CN[C@@H](CC1CCCC1)C(=O)O; NMeGly(cPent) = CN[C@H](C(=O)O)C1CCCC1; mXylylene = c1cc(C[*:1])cc(C[*:2])c1; NMeGly(cBu) = CN[C@H](C(=O)O)C1CCC1; NMeCha = CN[C@@H](CC1CCCCC1)C(=O)O; cisHyp = O=C(O)[C@@H]1C[C@H](O)CN1; NMehLeu = CN[C@@H](CCC(C)C)C(=O)O; NEtLeu = CCN[C@@H](CC(C)C)C(=O)O; NMeChg = CN[C@H](C(=O)O)C1CCCCC1; NMeF = CN[C@@H](Cc1ccccc1)C(=O)O; NMeI = CC[C@H](C)[C@H](NC)C(=O)O; NMeD = CN[C@@H](CC(=O)O)C(=O)O; NMeL = CN[C@@H](CC(C)C)C(=O)O; NMeV = CN[C@H](C(=O)O)C(C)C; d(β3hA) = C[C@@H](N)CC(=O)O; NMeS = CN[C@@H](CO)C(=O)O; Morpholide = C1CN(*)CCO1; NMeA = CN[C@@H](C)C(=O)O; Piperidide = C1CCN(*)CC1; Ac5c = NC1(C(=O)O)CCCC1; Aze = O=C(O)[C@@H]1CCN1; Sar = CNCC(=O)O; Propyl = CCC*

The compounds below were run on Human pancreatic cancer cell line AsPC-1 (assay: Measurement of AsPC-1 cell growth inhibition (AsPC-1 CGI)). Settings: 96 h.
Assay type: cell-based
Summary of the method: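 AsPC-1 cells in 15% FBS RPMI-1640 were exposed to test compound for 96 hours at 37° C, with CellTiter-Glo as endpoint.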
`CC[C@H](C)[C@@H]1NC(=O)[C@H](C2CCC2)N(C)C(=O)C[C@@H](C(=O)N2CCCCC2)N(C)C(=O)[C@H]([C@@H](C)CC)N(C)C(=O)C2(CCCC2)NC(=O)[C@@H]2CCCN2C(=O)[C@H](CCc2ccc(C(F)(F)F)c(Cl)c2)NC(=O)CN(C)C(=O)[C@H](CC2CCCCC2)N(C)C(=O)[C@@H]2CCN2C(=O)[C@H](C)N(C)C1=O` [Compound 959] ([NMeGly(cBu)]I[NMeA][Aze][NMeCha][Sar][hPhe(3-Cl-4-CF3)]P[Ac5c][NMeI][NMeD]-Piperidide; lactam N-11) gave an IC50 of 0.02 to 0.05 µM. In the case of `CC[C@H](C)[C@@H]1NC(=O)[C@H](CC(C)C)N(C)C(=O)C[C@@H](C(=O)N2CCCCC2)N(C)C(=O)[C@H](CC(C)C)N(C)C(=O)C2(CCCC2)NC(=O)[C@@H]2C[C@H](OCc3cccc(C)c3)CN2C(=O)[C@H](CCc2ccc(C(F)(F)F)c(F)c2)NC(=O)CN(C)C(=O)[C@H](CC2CCCCC2)N(C)C(=O)CN(C)C(=O)CN(C)C1=O` [Compound 2141] ([NMeL]I[Sar][Sar][NMeCha][Sar][hPhe(3-F,4-CF3)][cisHyp](mXylylene)[Ac5c][NMeL][NMeD]-Piperidide; lactam N-11), the IC50 is reported as greater than 0.5 µM. Work on `CC[C@H](C)[C@@H]1NC(=O)[C@H](CC(C)C)N(C)C(=O)C[C@@H](C(=O)N2CCCCC2)N(C)C(=O)[C@H](C2CCCC2)N(C)C(=O)C2(CCCC2)NC(=O)[C@@H]2CCCN2C(=O)[C@H](CCc2ccc(C(F)(F)F)c(Cl)c2)NC(=O)CN(C)C(=O)[C@H](C2CCCC2)N(C)C(=O)[C@@H]2CCN2C(=O)[C@H](C)N(C)C1=O` [Compound 182] ([NMeL]I[NMeA][Aze][NMeGly(cPent)][Sar][hPhe(3-Cl-4-CF3)]P[Ac5c][NMeGly(cPent)][NMeD]-Piperidide; lactam N-11) yielded an IC50 of 0.02 to 0.05 µM. In the case of `CC[C@H](C)[C@@H]1NC(=O)[C@H](CC(C)C)N(C)C(=O)C[C@@H](C(=O)N2CCCCC2)N(C)C(=O)[C@H](C2CCCCC2)N(C)C(=O)C2(CCCC2)NC(=O)[C@@H]2C[C@H](c3ccccc3)CN2C(=O)[C@H](CCc2ccc(C(F)(F)F)c(Cl)c2)NC(=O)CN(C)C(=O)[C@H](CC2CCCCC2)N(C)C(=O)CN(C)C(=O)CN(C)C1=O` [Compound 428] ([NMeL]I[Sar][Sar][NMeCha][Sar][hPhe(3-Cl-4-CF3)][Pro(cis-4-Ph)][Ac5c][NMeChg][NMeD]-Piperidide; lactam N-11), the IC50 is reported as 0.1 to 0.5 µM. Compound `CC[C@H](C)[C@@H]1NC(=O)[C@H](CC2CCCC2)N(C)C(=O)C[C@@H](C(=O)N2CCOCC2)N(C)C(=O)[C@H](C2CCCC2)N(C)C(=O)C2(CCCC2)NC(=O)[C@@H]2CCCN2C(=O)[C@H](CCc2ccc(C(F)(F)F)c(Cl)c2)NC(=O)CN(C)C(=O)[C@H](CC2CCCCC2)N(C)C(=O)[C@@H]2CCN2C(=O)[C@H](C)NC1=O` [Compound 1176] ([NMeAla(cPent)]IA[Aze][NMeCha][Sar][hPhe(3-Cl-4-CF3)]P[Ac5c][NMeGly(cPent)][NMeD]-Morpholide; lactam N-11) has an IC50 of 0.05 to 0.1 µM. Compound `CC[C@H](C)[C@@H]1NC(=O)[C@H](CC(C)C)N(C)C(=O)C[C@@H](C)NC(=O)[C@H](C2CCCC2)N(C)C(=O)C2(CCCC2)NC(=O)[C@@H]2CCCN2C(=O)[C@H](CCc2ccc(C(F)(F)F)c(Cl)c2)NC(=O)CN(C)C(=O)[C@H](Cc2ccc(C(F)(F)F)cc2)N(C)C(=O)[C@@H]2CCN2C(=O)CN(C)C1=O` [Compound 1496] (cyclo([Ac5c][NMeGly(cPent)][d(β3hA)][NMeL]I[Sar][Aze][NMePhe(4-CF3)][Sar][hPhe(3-Cl-4-CF3)]P)) has an IC50 of 0.05 to 0.1 µM. In the case of `CC[C@H](C)[C@@H]1NC(=O)[C@H](CC(C)C)N(C)C(=O)C[C@@H](C(=O)N2CCCCC2)N(C)C(=O)[C@H](C(C)C)N(C)C(=O)C2(CCCC2)NC(=O)[C@@H]2CCCN2C(=O)[C@H](CCc2ccc(C(F)(F)F)c(Cl)c2)NC(=O)CN(C)C(=O)[C@H](CC2CCCCC2)N(C)C(=O)[C@@H]2CCN2C(=O)[C@H](Cc2ccccc2)N(C)C1=O` [Compound 1561] ([NMeL]I[NMeF][Aze][NMeCha][Sar][hPhe(3-Cl-4-CF3)]P[Ac5c][NMeV][NMeD]-Piperidide; lactam N-11), the IC50 is reported as 0.1 to 0.5 µM. `CCCOC[C@H]1C(=O)N(C)CC(=O)N[C@@H](CCc2ccc(C(F)(F)F)c(Cl)c2)C(=O)N2CCC[C@H]2C(=O)NC2(CCCC2)C(=O)N(C)[C@@H](C2CCCC2)C(=O)N(C)[C@H](C(=O)N2C3CCC2COC3)CC(=O)N(CC)[C@@H](CC(C)C)C(=O)N[C@@H]([C@@H](C)CC)C(=O)N(C)[C@@H](C)C(=O)N2CC[C@H]2C(=O)N1C` [Compound 1193] ([NEtLeu]I[NMeA][Aze][NMeS](Propyl)[Sar][hPhe(3-Cl-4-CF3)]P[Ac5c][NMeGly(cPent)][NMeD]-{3Oxa8azabicyclo(3.2.1)octane}; lactam N-11) gave an IC50 of 0.02 to 0.05 µM. Compound `CCCOC[C@H]1C(=O)N(C)CC(=O)N[C@@H](CCc2ccc(C(F)(F)F)c(Cl)c2)C(=O)N2CCC[C@H]2C(=O)NC2(CCCC2)C(=O)N(C)[C@@H](C2CCCC2)C(=O)N(C)[C@H](C(=O)N2C3CCC2COC3)CC(=O)N(C)[C@@H](CCC(C)C)C(=O)N[C@@H]([C@@H](C)CC)C(=O)N(C)[C@@H](C)C(=O)N2CC[C@H]2C(=O)N1C` [Compound 1154] ([NMehLeu]I[NMeA][Aze][NMeS](Propyl)[Sar][hPhe(3-Cl-4-CF3)]P[Ac5c][NMeGly(cPent)][NMeD]-{3Oxa8azabicyclo(3.2.1)octane}; lactam N-11) has an IC50 of 0.02 to 0.05 µM.
